Reference: patent publication US20060083691A1, “Intranasal opioid compositions, delivery devices and methods of using same” (priority 2000, published 2006)

Tests used:
Type in all cases: in vivo, human
[1] = Pharmacokinetics of single or multiple doses of intranasal butorphanol tartrate, two-way crossover study
Experimental: Pharmacokinetic parameters of single doses or multi doses of intranasal butorphanol tartrate using a single-dose, metered sprayer were evaluated in a 12 subject, two-way crossover study. The butorphanol formulation used was as described in Example 2. Each volunteer received either 1 or 2 mg of intranasal butorphanol as a single does (Treatment A) and 1 or 2 mg of intranasal butorphanol every six hours for seven doses (Treatment B). The butorphaonol composition was substantially as described in Example 2. During phase 1, 12 subjects received a single 1 mg dose. During phase 2, those who received the 1 mg single dose received 1 mg every six hours for seven doses. During phase 3, those who received the 2 mg single dose received 2 mg every six hours for seven doses. Serial blood samples were collected over 12 hours. Pharmacokinetic parameters are show in Table 5.

[2] = Pharmacokinetics of single doses of intranasal butorphanol tartrate, three-way crossover study; conditions: for F(%): relative to 2 mg i.v.
Experimental: Pharmacokinetic parameters of single doses of intranasal butorphanol tartrate using a single-dose, metered sprayer were evaluated in a 24 subject, three-way crossover study. The intranasal formulation contained aqueous buffered solution (pH 5) having 0.2% sodium citrate and 0.2% citric acid and 1 mg of butorphanol tartrate per ml. […] Each volunteer received three treatments: (1) 2 mg of i.v. butorphanol, (2) 2 mg of intranasal butorphanol, and (3) 1 mg of intranasal butorphanol. Each treatment was separated by a 6 day washout period.

[3] = Pharmacokinetics and bioequivalence of butorphanol formulation, unit-dose vs multi-dose delivery device; conditions: 2 mg intranasal
Experimental: The experiments described in this example compared bioavailability and other parameters of a butorphanol formulation when administered using a unit-dose or multi-dose delivery device. The butorphanol formulation used for this example (STADOL NS®) contained 10 mg butorphanol tartrate, 6.5 mg sodium chloride, 1.0 mg citric acid, 0.20 mg benzethonium chloride in purified water with 1.2 mg sodium hydroxide and hydrochloric acid added to adjust the pH to 5.0.
The multi-dose sprayer purported by its label to administer 0.1 ml of liquid composition by metering upon activation by the user. The unit-dose spray device was a disposable intranasal applicator that is commercially available from Pfeiffer of America under the designation “Unitdose Second Generation.” Each of the Pfeiffer spray applicators was charged with sufficient liquid to deliver a 0.1 ml dose of the butorphanol formulation. The associated glass containers were filled using a pipette under clean conditions, sealed and assembled to the applicator. Each of the applicators was weighed prior to use and after use. Qualified medical personnel administered one dose into each nostril, after which the applicator was recovered for weighing. In the case of the unit-dose applicators, two devices were used for each patient for a total of 2 mg butorphanol tartrate.
Pharmacokinetics and bioequivalence (intrasubject variabilitiy) of the above-described butorphanol formulation upon administration using either the multi-dose or unit dose delivery device was assessed. The study was initiated with 16 subjects, 15 of which completed the study to provide data for this analysis; one subject dropped out after the second period. The following analysis considers both raw and normalized data, with the latter standardized with respect to the dose dispensed.
For both the raw and normalized data, log transformations are applied to the pharmacokinetic endpoints Cmax, AUC(last), and AUC(inf). A mixed effects model was considered for each parameter. Fixed effects for the factors sequence (4 levels), period 3 levels) and device (2 levels) were included in the model. Additionally, gender, as well as the interactions between gender and each of sequence, period and device was included as a factor in each model to determine whether separate analyses would be necessary for males and females. A total of seven models were considered: Tmax, log of raw Cmax values, log of normalized Cmax values, log transformed values for raw and normalized AUC(last), and log values for raw and normalized AUC(inf). […] In addition, the lack of significance of the effects included in each model indicate that there was no evidence of unequal carryover between the two delivery devices. […]

[4] = Multiple Dose 1 mg q 6 hr intranasal
[5] = Multiple Dose 2 mg q 6 hr intranasal

With O=C(O)C(O)C(O)C(=O)O.Oc1ccc2c(c1)[C@@]13CCCC[C@@]1(O)[C@@H](C2)N(CC1CCC1)CC3 [butorphanol tartrate] the AUC0-t [1, 4] was 7.21 ng·h/mL, the Cmax [1, 4] was 1.55 ng/mL and the Tmax range [1, 4] was “(0.25-3.0)”. For the same compound, the AUC0-t [1, 5] was 15.75 ng·h/mL, the Cmax [1, 5] was 3.80 ng/mL and the Tmax range [1, 5] was “(0.25-0.75)”. The AUC0-t ([1]; Single Dose 1 mg intranasal) was 3.80 ng·h/mL, the Cmax ([1]; Single Dose 1 mg intranasal) was 1.46 ng/mL and the Tmax range ([1]; Single Dose 1 mg intranasal) was “(0.17-1.02)”. The AUC0-t ([1]; Single Dose 2 mg intranasal) was 9.55 ng·h/mL, the Cmax ([1]; Single Dose 2 mg intranasal) was 4.13 ng/mL and the Tmax range ([1]; Single Dose 2 mg intranasal) was “(0.167-0.5)”. For the same compound, the AUC0-t ([2]; 1 mg intranasal) was 4.88 ± 1.5 ng·h/mL, the Cmax ([2]; 1 mg intranasal) was 1.67 ± 0.7 ng/mL and the “F(%)” value ([2]; 1 mg intranasal) was 80.2 ± 29.1%. For the same compound, the AUC0-t ([2]; 2 mg i.v.) was 12.59 ± 2.3 ng·h/mL, the Cmax ([2]; 2 mg i.v.) was 10.32 ± 2.7 ng/mL and the AUC0-t ([2]; 2 mg intranasal) was 9.51 ± 1.9 ng·h/mL. For the same compound, the Cmax ([2]; 2 mg intranasal) was 3.38 ± 1.3 ng/mL, the “F(%)” value ([2]; 2 mg intranasal) was 77.6 ± 18.3% and the “AUC0-t” value ([3]; STADOL NS multi-dose device) was “about 9329 pg*hr/ml”. The Cmax ([3]; STADOL NS multi-dose device) was “about 4027 pg/ml”, the Tmax ([3]; STADOL NS multi-dose device) was “about 0.245 hr” and the AUC ([3]; unit-dose device) was “about 10661 pg*hr/ml”.
